Test results as given in PubChem BioAssay (NCI).
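Growth conditions: 96-well plates. Treatment: test compound, 48 hours, 5 concentrations. Analysis: linear interpolation between bracketing concentrations; unreached endpoints set to highest concentration. TGI: concentration producing complete growth inhibition.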

What was measured:
Assay in all cases: inhibition of tumour cell growth, NCI panel, 48 h
786-0 renal = system: 786-0 renal
A498 renal = system: A498 renal
A549 NSCLC = system: A549 NSCLC
BT-549 breast = system: BT-549 breast
CAKI-1 renal = system: CAKI-1 renal
CCRF-CEM leukemia = system: CCRF-CEM leukemia
COLO 205 colon = system: COLO 205 colon
DU-145 prostate = system: DU-145 prostate
EKVX NSCLC = system: EKVX NSCLC
HCT-116 colon = system: HCT-116 colon
HCT-15 colon = system: HCT-15 colon
HL-60(TB) leukemia = system: HL-60(TB) leukemia
HOP-62 NSCLC = system: HOP-62 NSCLC
HOP-92 NSCLC = system: HOP-92 NSCLC
HS 578T breast = system: HS 578T breast
HT29 colon = system: HT29 colon
IGROV1 ovarian = system: IGROV1 ovarian
K-562 leukemia = system: K-562 leukemia
KM12 colon = system: KM12 colon
M14 melanoma = system: M14 melanoma
MALME-3M melanoma = system: MALME-3M melanoma
MCF7 breast = system: MCF7 breast
MDA-MB-231 breast = system: MDA-MB-231 breast
MDA-MB-435 = system: MDA-MB-435
MDA-N = system: MDA-N
NCI-H226 lung = system: NCI-H226 lung
NCI-H23 lung = system: NCI-H23 lung
NCI-H460 lung = system: NCI-H460 lung
NCI/ADR-RES ovarian = system: NCI/ADR-RES ovarian
OVCAR-3 ovarian = system: OVCAR-3 ovarian
OVCAR-4 ovarian = system: OVCAR-4 ovarian
OVCAR-5 ovarian = system: OVCAR-5 ovarian
OVCAR-8 ovarian = system: OVCAR-8 ovarian
PC-3 prostate = system: PC-3 prostate
RPMI-8226 leukemia = system: RPMI-8226 leukemia
RXF 393 renal = system: RXF 393 renal
SF-268 CNS = system: SF-268 CNS
SF-295 CNS = system: SF-295 CNS
SF-539 CNS = system: SF-539 CNS
SK-MEL-2 melanoma = system: SK-MEL-2 melanoma
SK-MEL-28 melanoma = system: SK-MEL-28 melanoma
SK-MEL-5 melanoma = system: SK-MEL-5 melanoma
SK-OV-3 ovarian = system: SK-OV-3 ovarian
SN12C renal = system: SN12C renal
SNB-19 CNS = system: SNB-19 CNS
SNB-75 CNS = system: SNB-75 CNS
SW-620 colon = system: SW-620 colon
T-47D breast = system: T-47D breast
U251 CNS = system: U251 CNS
UACC-257 melanoma = system: UACC-257 melanoma
UACC-62 melanoma = system: UACC-62 melanoma
UO-31 renal = system: UO-31 renal
ACHN renal = system: ACHN renal
LOX IMVI melanoma = system: LOX IMVI melanoma
MOLT-4 leukemia = system: MOLT-4 leukemia
NCI-H522 lung = system: NCI-H522 lung
SR leukemia = system: SR leukemia
TK-10 renal = system: TK-10 renal
HCC-2998 colon = system: HCC-2998 colon

Measured: TGI

Cc1ccc(S(=O)(=O)c2c(O)c3ccccc3n(C)c2=O)cc1
> 100 µM: 786-0 renal | A498 renal | A549 NSCLC | BT-549 breast | CAKI-1 renal | CCRF-CEM leukemia | COLO 205 colon | DU-145 prostate | EKVX NSCLC | HCT-116 colon | HCT-15 colon | HL-60(TB) leukemia | HOP-62 NSCLC | HOP-92 NSCLC | HS 578T breast | HT29 colon | IGROV1 ovarian | K-562 leukemia | KM12 colon | M14 melanoma | MALME-3M melanoma | MCF7 breast | MDA-MB-231 breast | MDA-MB-435 | MDA-N | NCI-H226 lung | NCI-H23 lung | NCI-H460 lung | NCI/ADR-RES ovarian | OVCAR-3 ovarian | OVCAR-4 ovarian | OVCAR-5 ovarian | OVCAR-8 ovarian | PC-3 prostate | RPMI-8226 leukemia | RXF 393 renal | SF-268 CNS | SF-295 CNS | SF-539 CNS | SK-MEL-2 melanoma | SK-MEL-28 melanoma | SK-MEL-5 melanoma | SK-OV-3 ovarian | SN12C renal | SNB-19 CNS | SNB-75 CNS | SW-620 colon | T-47D breast | U251 CNS | UACC-257 melanoma | UACC-62 melanoma | UO-31 renal

C/C(O)=C/c1nc2ccc([N+](=O)[O-])cc2nc1/C=C(/C)O
85.3 µM: HS 578T breast
72.2 µM: MOLT-4 leukemia
84.3 µM: HOP-92 NSCLC
> 100 µM: 786-0 renal | A549 NSCLC | ACHN renal | BT-549 breast | CAKI-1 renal | COLO 205 colon | DU-145 prostate | EKVX NSCLC | HCT-116 colon | HCT-15 colon | HL-60(TB) leukemia | HOP-62 NSCLC | HT29 colon | IGROV1 ovarian | K-562 leukemia | KM12 colon | LOX IMVI melanoma | M14 melanoma | MDA-MB-231 breast | MDA-MB-435 | MDA-N | NCI-H226 lung | NCI-H23 lung | NCI/ADR-RES ovarian | OVCAR-3 ovarian | OVCAR-4 ovarian | OVCAR-5 ovarian | OVCAR-8 ovarian | PC-3 prostate | RXF 393 renal | SF-268 CNS | SF-295 CNS | SF-539 CNS | SK-MEL-28 melanoma | SK-MEL-5 melanoma | SK-OV-3 ovarian | SN12C renal | SNB-19 CNS | SNB-75 CNS | SW-620 colon | TK-10 renal | U251 CNS | UACC-62 melanoma | UO-31 renal
51.5 µM: NCI-H460 lung
61.9 µM: CCRF-CEM leukemia
94.3 µM: MALME-3M melanoma
83.6 µM: A498 renal
70 µM: NCI-H522 lung
87.6 µM: T-47D breast
47 µM: SR leukemia
96.8 µM: SK-MEL-2 melanoma
65.1 µM: RPMI-8226 leukemia
72.7 µM: UACC-257 melanoma

CC(=O)OCC=C(CCl)CCC(Br)C(C)(C)Br (mixture of isomers)
> 10 µM: 786-0 renal | A498 renal | A549 NSCLC | ACHN renal | BT-549 breast | CAKI-1 renal | CCRF-CEM leukemia | COLO 205 colon | DU-145 prostate | EKVX NSCLC | HCC-2998 colon | HCT-116 colon | HCT-15 colon | HL-60(TB) leukemia | HOP-62 NSCLC | HS 578T breast | HT29 colon | IGROV1 ovarian | K-562 leukemia | KM12 colon | LOX IMVI melanoma | M14 melanoma | MALME-3M melanoma | MCF7 breast | MDA-MB-231 breast | MDA-MB-435 | MDA-N | MOLT-4 leukemia | NCI-H226 lung | NCI-H23 lung | NCI-H460 lung | NCI-H522 lung | NCI/ADR-RES ovarian | OVCAR-3 ovarian | OVCAR-4 ovarian | OVCAR-5 ovarian | OVCAR-8 ovarian | PC-3 prostate | RPMI-8226 leukemia | RXF 393 renal | SF-268 CNS | SF-295 CNS | SF-539 CNS | SK-MEL-2 melanoma | SK-MEL-28 melanoma | SK-MEL-5 melanoma | SK-OV-3 ovarian | SN12C renal | SNB-19 CNS | SNB-75 CNS | SW-620 colon | T-47D breast | TK-10 renal | U251 CNS | UACC-257 melanoma | UACC-62 melanoma | UO-31 renal

COC1CC(OC(=O)c2ccccc2)C(OC(=O)c2ccccc2)C(C)O1 (stereo unspecified)
> 100 µM: 786-0 renal | A498 renal | A549 NSCLC | ACHN renal | CAKI-1 renal | CCRF-CEM leukemia | COLO 205 colon | DU-145 prostate | EKVX NSCLC | HCC-2998 colon | HCT-116 colon | HCT-15 colon | HL-60(TB) leukemia | HOP-62 NSCLC | HOP-92 NSCLC | HS 578T breast | IGROV1 ovarian | K-562 leukemia | KM12 colon | LOX IMVI melanoma | M14 melanoma | MALME-3M melanoma | MCF7 breast | MDA-MB-231 breast | MDA-MB-435 | MDA-N | MOLT-4 leukemia | NCI-H226 lung | NCI-H23 lung | NCI-H460 lung | NCI-H522 lung | NCI/ADR-RES ovarian | OVCAR-3 ovarian | OVCAR-5 ovarian | OVCAR-8 ovarian | PC-3 prostate | RPMI-8226 leukemia | RXF 393 renal | SF-268 CNS | SF-295 CNS | SF-539 CNS | SK-MEL-2 melanoma | SK-MEL-28 melanoma | SK-MEL-5 melanoma | SK-OV-3 ovarian | SN12C renal | SNB-19 CNS | SR leukemia | SW-620 colon | T-47D breast | TK-10 renal | U251 CNS | UACC-257 melanoma | UACC-62 melanoma | UO-31 renal
